Results on 14 molecules are retold here after article PMC8008425, “Shedding X-ray Light on the Role of Magnesium in the Activity of Mycobacterium tuberculosis Salicylate Synthase (MbtI) for Drug Design” (Journal of Medicinal Chemistry, 2020).

Converted amounts (≈) assume the structure as drawn. “And” between values parts separate entries of the source, which are not always exact repeats. Equal entries are not always repeated. Where two headings read alike, the source gives them in different places.

Data set [1] deals with T1, recombinant MbtI (Mycobacterium tuberculosis, UniProt P9WFX1). In words: MbtI enzymatic (fluorimetric) inhibition assay. The data set is classed as biochemical. Conditions: for remaining activity at 100 µM: residual enzymatic activity at 100 μM ligand concentration, 50 μM chorismic acid.
T1 sequence (P9WFX1 whole entry): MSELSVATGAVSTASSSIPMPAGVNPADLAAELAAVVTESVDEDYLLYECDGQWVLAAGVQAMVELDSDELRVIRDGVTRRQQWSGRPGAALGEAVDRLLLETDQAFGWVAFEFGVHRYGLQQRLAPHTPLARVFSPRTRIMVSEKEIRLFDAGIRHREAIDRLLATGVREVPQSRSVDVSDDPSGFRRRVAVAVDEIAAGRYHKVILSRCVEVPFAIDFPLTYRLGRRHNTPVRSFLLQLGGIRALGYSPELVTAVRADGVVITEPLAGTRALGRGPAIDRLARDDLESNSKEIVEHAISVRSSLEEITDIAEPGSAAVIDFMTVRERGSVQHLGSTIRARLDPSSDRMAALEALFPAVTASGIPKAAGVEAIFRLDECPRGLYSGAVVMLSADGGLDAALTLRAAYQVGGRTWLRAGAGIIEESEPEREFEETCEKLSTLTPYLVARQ
A short description of the next data set: in vitro. As to conditions: human.
In data set [2] the test system is M. tuberculosis H37Rv. Kind of data set: MIC99 determination on Middlebrook 7H11 agar solid medium. The data set is classed as cell-based. Conditions: Mycobacterium tuberculosis.
Data set [3] has as its system M. bovis BCG. It is filed as cell-based, Mycobacterium bovis. As to conditions: M. bovis BCG cultures grown at different concentrations of compound, chelated Sauton's medium.
The subject of data set [4] is M. bovis BCG. Kind of data set: microbe, parasite or virus in culture. The data set is classed as cell-based. As to conditions: Mycobacterium tuberculosis variant bovis BCG.
In data set [5] the test system is M. tuberculosis H37Rv. Set-up: method as in PMID 29940465, PMID 30889995. As to conditions: Mtb cultures; cited from earlier work.
The target in data set [6] is T1, recombinant MbtI. As to conditions: cited from earlier work.
Setting [7] is: standard assay, 5 mM MgCl2, read-out: IC50.

One may read the remaining activity as the signal under treatment as a percentage of the control signal. With `O=C(O)c1ccc(-c2cccc(C(F)(F)F)c2)o1` [Compound 1], the remaining activity at 100 µM at recombinant MbtI [1] (5 mM MgCl2) came out at 42 ± 6.3%.

By melting point is commonly meant the temperature, or range, at which the solid turns liquid. Consider `O=C(O)c1ccc(-c2cccc(Cl)c2)o1` [Compound 2, 5-(3-Chlorophenyl)furan-2-carboxylic Acid], for which the melting point is 187 °C (dec.). Moreover, at recombinant MbtI [1] (5 mM MgCl2), the remaining activity at 100 µM is 102 ± 17.8%.

On to `O=C(O)c1ccc(-c2cccc(O)c2)o1` [Compound 3, 5-(3-Hydroxyphenyl)furan-2-carboxylic Acid], for which the melting point worked out at 170 °C. Further, on recombinant MbtI [1] (5 mM MgCl2), the remaining activity at 100 µM came to 70.4 ± 21.8%.

On to `Cc1cccc(-c2ccc(C(=O)O)o2)c1` [Compound 4, 5-(m-Tolyl)furan-2-carboxylic Acid], for which the melting point was determined as 147 °C. For the same molecule, the remaining activity at 100 µM on recombinant MbtI [1] (5 mM MgCl2) stood at 104 ± 4.8%.

For the molecule `Nc1cccc(-c2ccc(C(=O)O)o2)c1` [Compound 5, 5-(3-Aminophenyl)furan-2-carboxylic Acid], the melting point is 225 °C (dec.). Besides, the remaining activity at 100 µM at recombinant MbtI [1] (5 mM MgCl2) was found to be 65.8 ± 9.6%.

By IC50 is commonly meant the concentration that gives 50% inhibition. Regarding `NC(=O)c1cccc(-c2ccc(C(=O)O)o2)c1` [Compound 6, 5-(3-Carbamoylphenyl)furan-2-carboxylic Acid], at recombinant MbtI [1] (5 mM MgCl2), the remaining activity at 100 µM worked out at 20.9 ± 4.3%. Besides, the half-maximal inhibitory concentration (IC50) on recombinant MbtI [1] (setting [7]) was 31 µM and 31.4 µM.

For `CNC(=O)c1cccc(-c2ccc(C(=O)O)o2)c1` [Compound 7, 5-(3-(Methylcarbamoyl)phenyl)furan-2-carboxylic Acid], the melting point was 159 °C. Further, on recombinant MbtI [1] (5 mM MgCl2), the remaining activity at 100 µM is 84 ± 9.1%.

`NS(=O)(=O)c1cccc(-c2ccc(C(=O)O)o2)c1` [Compound 8, 5-(3-Sulfamoylphenyl)furan-2-carboxylic Acid]: the remaining activity at 100 µM at recombinant MbtI [1] (5 mM MgCl2) was determined as 28.6 ± 6.8%.

With `O=C(O)c1cccc(-c2ccc(C(=O)O)o2)c1` [Compound 9, 5-(3-Carboxyphenyl)furan-2-carboxylic Acid], the remaining activity at 100 µM on recombinant MbtI [1] (5 mM MgCl2) worked out at 27.2 ± 4.5%.

In general, Ki refers to the equilibrium dissociation constant of an inhibitor or competing ligand from its target. With `N#Cc1cccc(-c2ccc(C(=O)O)o2)c1` [Compound 10, 5-(3-Cyanophenyl)furan-2-carboxylic Acid], the IC50 at recombinant MbtI [1] (0.1 mg/mL BSA, PAINS control, read-out: IC50 in the presence of BSA) was determined as 6.1 ± 0.9 µM; on recombinant MbtI [1] (1 mM MgCl2, Figure 5B, x-axis [10] (μM), read-out: IC50 at 1 mM MgCl2), 9.8 ± 1.3 µM; at recombinant MbtI [1] (5 mM MgCl2, Figure 5B, x-axis [10] (μM), read-out: IC50 at 5 mM MgCl2), 11.4 ± 2 µM; at recombinant MbtI [1] (0.01% (v/v) Triton X-100, PAINS control, read-out: IC50 in the presence of Triton X-100), 5.8 ± 1.2 µM; at recombinant MbtI [1] (25 mM MgCl2, Figure 5B, x-axis [10] (μM), read-out: IC50 at 25 mM MgCl2), 14.2 ± 1.1 µM; at recombinant MbtI [1] (100 mM DTT, PAINS control, read-out: IC50 in the presence of DTT), 7.2 ± 1.1 µM. The IC50 on recombinant MbtI [1] (IC50, standard assay, 5 mM MgCl2) is 6.3 ± 0.9 µM; on recombinant MbtI [1] (setting [7]), ~6 µM; in “in vitro”, > 100 µM. On recombinant MbtI [1] (5 mM MgCl2), the remaining activity at 100 µM worked out at 3.1 ± 1%. For the same molecule, the “mode of inhibition (kinetic analysis)” value on recombinant MbtI [1] (steady-state kinetics toward chorismic acid) is “competitive inhibitor”. On recombinant MbtI [1] (steady-state kinetics toward chorismic acid, competitive inhibition), the Ki was 4.2 µM and 4 µM. Further, the MIC99 in the data set on M. tuberculosis H37Rv [2] and with M. bovis BCG [4] was 250 µM (≈ 53.3 µg/mL) in each case. In the data set on M. bovis BCG [3], the “siderophore concentration (Universal CAS assay and quantification of mycobactins)” value is “siderophore concentration decreased at higher concentrations of the compound”.

`N#Cc1cccc(-c2ccc(C(N)=O)o2)c1` [Compound 11, 5-(3-Cyanophenyl)furan-2-carboxamide] registered a melting point of 202 °C. The half-maximal inhibitory concentration (IC50) at recombinant MbtI [1] (setting [7]) is 17.3 ± 1.9 µM.

With `O=C(O)c1ccc(-c2ccc(C(F)(F)F)cc2C(F)(F)F)o1` [II], in the data set with M. tuberculosis H37Rv [5], the MIC99 was 250 µM (≈ 81 µg/mL).

`O=C(O)c1ccc(-c2ccc([N+](=O)[O-])cc2)o1` [I]: on recombinant MbtI [6] (previous leads), the half-maximal inhibitory concentration (IC50) was 7.6 ± 1.6 µM. Moreover, the MIC99 in the data set on M. tuberculosis H37Rv [5] was 156 µM (≈ 36.4 µg/mL).

With `O=C(O)c1ccc(-c2cccc([N+](=O)[O-])c2)o1` [NO2, 5-(3-nitrophenyl)furan-2-carboxylic acid], at recombinant MbtI [6] (at a concentration of 100 μM), the inhibitory activity is ~50%.
